Assay results taken from patent US10060908B2, “Oxidized cardiolipin as a pro-inflammatory factor” (MEDIRISTA BIOTECHNOLOGIES AB, priority 2008, dated 2018).

T1: Annexin A5 (Homo sapiens, UniProt P08758)
T1 construct: purchased Bender MedSystems GmbH, Austria
T1 sequence (P08758 1-320): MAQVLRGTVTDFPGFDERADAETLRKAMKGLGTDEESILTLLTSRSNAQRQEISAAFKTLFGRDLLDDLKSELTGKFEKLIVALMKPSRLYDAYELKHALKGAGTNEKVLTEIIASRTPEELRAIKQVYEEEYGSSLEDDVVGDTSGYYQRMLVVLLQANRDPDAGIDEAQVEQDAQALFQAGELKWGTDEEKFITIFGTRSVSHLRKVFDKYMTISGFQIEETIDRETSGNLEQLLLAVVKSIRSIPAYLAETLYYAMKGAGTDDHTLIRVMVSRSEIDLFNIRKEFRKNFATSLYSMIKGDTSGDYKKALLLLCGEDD


Tests used:
[1] = tested on: THP-1 differentiated macrophages; assay: Uptake of Dil-labeled OxLDL in macrophages, flow cytometry; type: cell-based, human; details: competitor 40, 80 ug/ml (LDL 40 ug/ml), Dil-OxLDL 5 ug/ml, 4 hours
Protocol: OxLDL (Industrylane Frederick) were incubated with Dil (Molecular Probes Engene, Oregon, USA) in lipoprotein-deficient serum (Sigma) at 37° C. for 15 hours. Then dialyzed against saline-EDTA buffer for 6 hours.
Uptake of Dil-labelled OxLDL was studied either by Flow cytometry or Fluorescence/confocal microscopy. For microscopy, The macrophages 1×10^6 were grown overnight on culture slides (Nunc, Naperville, N.Y.), For flow cytometry, The macrophages were plated in a 6-well plate at density of 1×10^6 cells/well in DMEM (INVITROGEN, USA) containing 10% FBS overnight. […] Thereafter, the cells from above were washed 4 times with 0.2% BSA/PBS and once with PBS. The cells were harvested in PBS containing 0.1% BSA and 0.01% NaN3. Mean fluorescence intensity was measured by flow cytometry (BD Biosciences, San Jose, Calif., USA). For each sample, fluorescence emission above 550 nm was measured and a minimum of 10.000 cells was analyzed.

Annexin A5 = target: T1, Annexin A5; assay: ELISA for Annexin A5 binding to coated cardiolipins; details: lipid 5 ug/ml coated overnight; Annexin A5 0.32-10.24 ug/ml
Protocol: After five washings with PBS, the plates were blocked with 2% PBS-BSA for 2 h at room temperature. Annexin A5 were added and incubated for 1 hour. After washing, bound annexin A5 was detected by incubating subsequently with rabbit anti-human annexin V polyclonal antibodies (Hyphen Biomed, Andresy, France) 1:2000 and polyclonal goat anti-rabbit Immunoglobulins/AP (DakoCytomation) 1:3000 were used. The reaction was developed with alkaline phosphatase substrate (Sigma), and optical density (OD) was read at 405 nm with an ELISA Multiscan Plus spectrophotometer (Molecular Devices Emax, San Francisco). All samples were measured in duplicates and the coefficient of variation was below 15%.

VCAM-1 (CD106) = assay: Adhesion molecule expression by endothelial cells, flow cytometry (VCAM-1); type: cell-based, human; details: HUVECs, 24 h
Protocol: (§1) Pooled human umbilical vascular endothelial cells (HUVECs) at passage 2 were purchased from Cascade Biologics, Inc (Portland, Ore). Cultures were maintained in EGM™ phenol red-free medium (Clonetics, San Diego, Calif.), containing 2% of fetal bovine serum and supplements, at 37° C. under humidified 5% CO2 conditions. All experiments were performed at passage 3 to 5. HUVECs were seeded at 6×10^4 cells/2 mL density on 6-well plates (NUNC Inc, Naperville, Ill.). After allowing endothelial cells overnight for attachment, cells were ready for stimulation.
(§2) After washing with PBS, OxCL and reduced CL (20 ug/ml) were added. For annexin A5 (From Bender MedSystems GmbH, Austria) inhibition study, OxCL was incubated with Annexin A5 (10 ug/ml) for half hour before adding to cells. After 24 hours incubation, detached floating cells were washed away, cell were harvested into Falcon FACS tubes. […] The intercellular adhesion molecule (ICAM-1) CD54 and the vascular cell adhesion molecule (VCAM-1) CD106 were studied with flow cytometry analysis equipped with CellQuest software. For each sample, 10,000 events were analyzed.

CD8-positive T-cells = assay: Activation of CD8-positive T cells (CD69), flow cytometry; type: cell-based; details: human PBMC, 5 ug/ml over night
Protocol: Both CD4 and CD8 positive T cells were studied. Quadrant Q2 represent (%) T-cells positive for CD69 expressing and thus activated T-cells.
Both CD4 and CD8 positive T-cells from the cell line Human PBMC where studied in an incubation setup illustrated in FIG. 11A-F. Both T-cell types where incubated with, buffer (control), oxCL or CL to determine the effect on activation, interpreted by the expression of CD69 surface molecule after stimulation.
In this experiment the attention must be drawn to the quadrant Q2 of the flow cytometry data shown. This quadrant represents the percentage of T-cells in the population tested to be CD69 positive, e.g. activated by the stimuli prior to the data collection.

leukotriene B4 = assay: Leukotriene B4 release from neutrophils, EIA; type: cell-based; details: human neutrophils
Protocol: (§3) Human PMNs were isolated from freshly prepared buffy coats (Karolinska Hospital blood bank, Stockholm, Sweden) by dextran sedimentation, hypotonic lysis of erythrocytes and gradient centrifugation on Lymphoprep (Axis-Shield PoC AS, Oslo, Norway). PMNs were suspended at a density of 10×10^6/ml in Dulbecco's PBS (Gibco (Invitrogen), Paisley, UK). PMN purity (>95%) and viability (>98%) was determined using Hemacolor (J. T. Baker, Utrecht, Holland) and Trypan Blue (Sigma Chemical Co.) staining, respectively.
(§4) Analysis of leukotriene B4 Biosynthesis by EIA kit 2×10^6 macrophages were incubated with different agents according to the experimental design, and then quenched with an equal volume methanol. After acidified to pH 3-4, the samples were purified by solid-phase extraction (Supelclean™ LC-18, Supelco) and eluted in methanol. After dried under nitrogen, the samples were re-suspended in EIA buffer. The level of LTB4 was determined with LTB4 EIA kit (Cayman Chemical) by using dilutions within the linear portion of the standard curve.

neutrophils = assay: Intracellular calcium mobilization, FURA-2AM fluorometer; type: cell-based, human; details: for MFI of calcium mobilization: within 120 seconds
Protocol: as §3
Neutrophils were added into black, 96-well plates with transparent bottom (Corning Costar; 5×10^4 cells/well), and spin down the plate at 120×g for 3 min, afterwards changing the medium containing 4 μM FURA-2AM (Fura-2 acetoxymethyl ester), or buffer as appropriate, and the cells were incubated for 30 min at 37° C. and 5% CO2. Cells were washed four times with 50 μl of a buffer solution (135 mM NaCl, 4.6 mM KCl, 1.2 mM MgCl2, 1.5 mM CaCl2, 11 mM glucose, 11 mM Hepes, pH 7.4) before a final 45 μl volume of buffer was added to each well.
The plates were transferred to a fluorometer (Fluostar™, BMG Technologies), and 50 μl of different agonists according to experimental designs or buffer solution as control were injected into individual wells and the cells were monitored for the next 120 seconds. Control wells containing cells that had not been exposed to FURA-2AM were used to subtract background auto-fluorescence. The results are given as the ratio of mean fluorescence intensity (MFI) between 340 and 380 nm, and normalized by control.

IL-6 = IL-6 production by HUVEC, protein multiplex immunoassay; type: cell-based, human; details: HUVECs, 24 h; for IL-6 levels of the substance alone compared with the control group: 20 ug/ml
Protocol: HUVEC cells from above were seeded at density 10^6/2 ml into 6 well plates. Allowing cells attachment for 24 hours, OxCL (20 ug/ml) with or without Annexin A5 (20 ug/ml) and reduced CL were added and incubated for 24 hours. Cell supernatant were collected and IL-6 and IL-8 production were measured with protein multiplex immunoassay kits (from Bioscource, USA) and Bio-PIei™ system (BioRad, USA).

ICAM-1 (CD54) = assay: Adhesion molecule expression by endothelial cells, flow cytometry (ICAM-1); type: cell-based, human; details: HUVECs, 24 h
Protocol: as §1, §2

LTB4 = assay: Leukotriene B4 biosynthesis in macrophages, EIA; type: cell-based; details: human monocyte-derived macrophages
Protocol: Human mononuclear cells were isolated from freshly prepared buffy coats (Karolinska Hospital blood bank, Stockholm, Sweden) by gradient centrifugation on Ficoll-Paque (Amersham Biosciences, Uppsala, Sweden). The mononuclear cells were cultured at a density of 5×10^6/ml in RPMI-1640 medium with 25 mM Hepes, 1% L-glutamine, 1% penicillin-streptomycin and 10% FBS. After 7 days, there are proximate 2×10^6 macrophages per well.
as §4

[2] = oxCL 20 ug/ml preincubated with Annexin A5 10 ug/ml

binding to Annexin A5 (Annexin A5)	Molecule	competition of dil-oxLDL uptake (in words) [1]	VCAM-1 expression (VCAM-1 (CD106); 20 ug/ml)	CD69 expression (activation) of CD8-positive T cells (CD8-positive T-cells)	leukotriene B4 release (leukotriene B4)	MFI of calcium mobilization (neutrophils)	IL-6 levels of the substance alone compared with the control group (IL-6)	ICAM-1 expression (ICAM-1 (CD54); 20 ug/ml)	inhibition of oxCL-induced VCAM-1 (CD106) expression (VCAM-1 (CD106); [2])	inhibition of oxCL-induced calcium mobilization (neutrophils; oxCL incubated with Annexin A5)	inhibition of OxCL-induced LTB4 production (LTB4)	IL-6 level, oxCL with Annexin A5 (IL-6; oxCL 20 ug/ml with Annexin A5 20 ug/ml) [pg/mL]	inhibition of oxCL-induced ICAM-1 (CD54) expression (ICAM-1 (CD54); [2])
could not bind	Hydro heart cardiolipin [reduced CL]	not	–	–	–	–	–	–	–	–	–	–	–
can bind	Cardiolipin [CL]	did not show the competition effetcts	did not show the same effect	not	did not show the similar reaction	did not increase	could not significantly increase	did not show the same effect	–	–	–	–	–
–	Annexin A5: member of the Annexin superfamily with anti-thrombotic properties; from Bender MedSystems (protein, UniProt P08758 2-320, looked up) Annexin A5: AQVLRGTVTDFPGFDERADAETLRKAMKGLGTDEESILTLLTSRSNAQRQEISAAFKTLFGRDLLDDLKSELTGKFEKLIVALMKPSRLYDAYELKHALKGAGTNEKVLTEIIASRTPEELRAIKQVYEEEYGSSLEDDVVGDTSGYYQRMLVVLLQANRDPDAGIDEAQVEQDAQALFQAGELKWGTDEEKFITIFGTRSVSHLRKVFDKYMTISGFQIEETIDRETSGNLEQLLLAVVKSIRSIPAYLAETLYYAMKGAGTDDHTLIRVMVSRSEIDLFNIRKEFRKNFATSLYSMIKGDTSGDYKKALLLLCGEDD	–	–	–	–	did not increase	could not significantly increase	–	significantly inhibited	greatly inhibited	greatly inhibited	276.4 ± 28.62	significantly inhibited
